Assay results taken from paper PMC11253624, “Unsaturated fatty acid perturbation combats emerging triazole antifungal resistance in the human fungal pathogen Aspergillus fumigatus” (mBio, 2024).
Converted amounts (≈) assume the structure as drawn. Where two headings read alike, the source gives them in different places.

How the values were obtained:
[1] = system: A. fumigatus strain ATCC46645; assay: Murine model of invasive pulmonary aspergillosis; assay type: in vivo, mouse
Description: Outbred wild-type CD-1 female mice at 20–24 g (Charles River Laboratory, Raleigh, NC, USA) were randomized and housed in autoclaved cages at ≤4 mice per cage with HEPA-filtered air and water. Mice were immunosuppressed by subcutaneous injection with triamcinolone acetonide (Kenalong-10, Bristol-Myer Squibb) at 40 mg/kg of body weight. Twenty-four hours after immune suppression, mice were intranasally inoculated with 2 × 10^6 live conidia (in 40 µL of sterile PBS) or PBS alone as a control. A. fumigatus strain ATCC46645 was grown on 1% GMM for 3 days at 37°C, conidia were collected in 0.01% Tween, and washed three times in sterile PBS. Immediately after fungal inoculation, mice were intraperitoneally (IP) injected with either vehicle (5% DMSO/10% PS80/25% HPBCDX 0.07% sodium acetate) or MBX-7591 at 10 mg/kg of body weight (5% DMSO/10% PS80/25% HPBCDX 0.07% sodium acetate). Mice were injected IP with a second dose of vehicle or MBX-7591 at 10 mg/kg of body weight 8 hours after the first dose of the drug. Mice were sacrificed 24 hours post-fungal challenge, lungs were excised from the chest cavity, rinsed in sterile PBS, and flash frozen for fungal burden analysis. Relative fungal burden was assessed through qPCR quantitation of A. fumigatus 18S rDNA as previously described ([38][–][40]).

[2] = system: P. variotii; assay: microbe, parasite or virus in culture; assay type: cell-based; settings: Paecilomyces variotii; strain MYA-3630
[3] = system: Histoplasma capsulatum; assay: microbe, parasite or virus in culture; assay type: cell-based
[4] = system: Aspergillus flavus; assay: CLSI-based microbroth dilution MIC, spectrum of activity; assay type: cell-based; settings: for MIC: Aspergillus flavus
[5] = system: Cryptococcus neoformans; assay: CLSI-based microbroth dilution MIC for yeast; assay type: cell-based; settings: for MIC: Cryptococcus neoformans
[6] = system: Apophysomyces spp.; assay: CLSI-based microbroth dilution MIC, spectrum of activity; assay type: cell-based
[7] = system: Blastomyces dematitidis; assay: microbe, parasite or virus in culture; assay type: cell-based
[8] = Aqueous solubility (nephelometric); assay type: physicochemical; settings: kinetic from dmso stock
Description: The maximum aqueous solubility of each compound was determined using a nephelometric method as described ([51]). Each assay comprised three technical replicates, and each assay was repeated at least once. The reported solubility is the average of at least five technical replicates. […]

[9] = target: T1, CYP3A4 (Homo sapiens, UniProt P08684); assay: CYP450 inhibition; assay type: in vitro ADME; settings: Human Cytochrome P450 kit (BD Gentest), read-out: Human CYP3A4 inhibition (%INH at 10 µM)
T1 construct: purchased BD Gentest Corp, Woburn, MA, USA
Description: Inhibition of the CYP450 enzyme CYP3A4 by each compound at a final concentration of 10 µM was measured using a commercially available Human Cytochrome P450 kit (BD Gentest Corp, Woburn, MA, USA) according to the manufacturer’s instructions.

[10] = system: A. fumigatus CEA10 reference strain; assay: MIC of HTS hits vs A. fumigatus CEA10, CLSI microbroth dilution, with or without 32 µg/mL fluconazole; settings: for MIC: Aspergillus fumigatus
[11] = system: Aspergillus terreus; assay: microbe, parasite or virus in culture; assay type: cell-based; settings: strain AT1
[12] = system: Scedosporium spp.; assay: CLSI-based microbroth dilution MIC, spectrum of activity; assay type: cell-based
[13] = system: Aspergillus fumigatus; assay: CLSI-based microbroth dilution MIC, A. fumigatus strains
[14] = system: Coccidioides spp.; assay: microbe, parasite or virus in culture; assay type: cell-based
[15] = system: Aspergillus niger; assay: CLSI-based microbroth dilution MIC, spectrum of activity; assay type: cell-based
[16] = read-out: MIC UTHSC, strain DI14-269
[17] = read-out: MIC UTHSC, strain DI14-284
[18] = read-out: MIC UTHSC, strain DI17-143

T1 sequence (P08684 whole entry): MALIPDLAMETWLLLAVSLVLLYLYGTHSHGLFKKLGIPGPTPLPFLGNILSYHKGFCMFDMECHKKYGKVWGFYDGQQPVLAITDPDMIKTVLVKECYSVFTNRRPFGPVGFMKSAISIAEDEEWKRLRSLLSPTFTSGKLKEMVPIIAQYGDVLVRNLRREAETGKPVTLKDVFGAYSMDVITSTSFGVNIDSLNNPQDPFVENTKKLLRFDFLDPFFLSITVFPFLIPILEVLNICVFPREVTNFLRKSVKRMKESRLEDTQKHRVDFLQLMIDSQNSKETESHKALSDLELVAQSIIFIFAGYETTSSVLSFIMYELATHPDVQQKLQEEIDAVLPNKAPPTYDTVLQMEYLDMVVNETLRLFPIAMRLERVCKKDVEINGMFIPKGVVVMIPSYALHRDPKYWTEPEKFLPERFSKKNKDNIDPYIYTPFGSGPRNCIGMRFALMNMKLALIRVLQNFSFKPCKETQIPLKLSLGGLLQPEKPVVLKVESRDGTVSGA

O=C(c1ccsc1)N1CCC(Cc2ccc(COc3ccncc3)cc2)CC1 [MBX-7591]
host toxicity in the IPA murine model ([1]; 10 mg/kg IP, two doses): no host-associated toxicity
lung fungal burden vs vehicle control (18S rDNA qPCR) ([1]; CD-1 mice, triamcinolone immunosuppressed, 10 mg/kg IP at 0 and 8 hours, lungs at 24 hours): over threefold decrease in fungal burden
MIC [2]: > 32 µg/mL
MIC [3, 16]: 4 µg/mL (≈ 10.2 µM)
MIC [3, 17]: 1 µg/mL (≈ 2.55 µM)
MIC [3, 18]: 0.5 µg/mL (≈ 1.27 µM)
MIC ([4]; ATCC204304, strain ATCC 204304): > 32 µg/mL
MIC ([4]; strain Aflav1): > 32 µg/mL
MIC UTHSC ([4]; strain Aflav2): > 32 µg/mL
MIC ([5]; strain H99, 0% CO2, read-out: MIC 0% CO2): > 39.2 µg/mL
MIC ([5]; strain H99, 5% CO2, Table S4, read-out: MIC 5% CO2): 2.45 µg/mL (≈ 6.24 µM)
MIC ([5]; strain H99, MIC obtained under 5% CO2, Table S3): 2.45 µg/mL (≈ 6.24 µM)
MIC ([5]; strain H99, read-out: MIC UTHSC): > 32 µg/mL
MIC 0% CO2 ([5]; strain A7-35-23, 0% CO2): > 39.25 µg/mL
MIC 5% CO2 ([5]; strain A7-35-23, 5% CO2): 2.45 µg/mL (≈ 6.24 µM)
MIC 0% CO2 ([5]; strain C23, 0% CO2): > 39.25 µg/mL
MIC 5% CO2 ([5]; strain C23, 5% CO2): 2.45 µg/mL (≈ 6.24 µM)
MIC 0% CO2 ([5]; strain JEC21, 0% CO2): > 39.25 µg/mL
MIC 5% CO2 ([5]; strain JEC21, 5% CO2): 2.45 µg/mL (≈ 6.24 µM)
MIC ([6]; strain Apo1): 0.5 µg/mL (≈ 1.27 µM)
MIC ([6]; strain Apo2): 16 µg/mL (≈ 40.8 µM)
MIC ([6]; strain Apo3): 4 µg/mL (≈ 10.2 µM)
MIC ([7]; strain DI19-271): 0.5 µg/mL (≈ 1.27 µM)
MIC ([7]; strain DI19-277): 8 µg/mL (≈ 20.4 µM)
MIC ([7]; strain DI19-282): 4 µg/mL (≈ 10.2 µM)
solubility [8]: 50 µM (≈ 19.6 µg/mL)
inhibition at 10 µM [9]: 89%
MIC ([10]; read-out: MBX-7591 MIC vs A. fumigatus (+) FLC): 0.4 µM
MIC ([10]; read-out: MBX-7591 MIC vs A. fumigatus (−) FLC): 1.2 µM
MIC ([10]; read-out: MIC (+Flu)): 5 µM
MIC ([10]; read-out: MIC (-Fluc)): 20 µM
Fold MIC ([10]; MIC-FLC/MIC+FLC, Table S2): 4
Ratio (MIC −FLC / MIC +FLC) ([10]; Table 1): 3
MIC [11]: > 32 µg/mL
MIC ([12]; NIH: DI19-67, DI15-15, DI19-66, read-out: MIC UTHSC): > 32 µg/mL
MIC ([12]; apiospermum (7D7), prolificans (7D8), JI 2018 "typical" (14E6)): > 39.2 µg/mL
effect of CO2 levels on A. fumigatus susceptibility [13]: not impacted by CO2 levels
MIC ([13]; Aspergillus fumigatus, read-out: MIC (activity against various A. fumigatus strains)): ~2 µg/mL (≈ 5.1 µM)
MIC [14, 16]: > 32 µg/mL
MIC [14, 17]: 8 µg/mL (≈ 20.4 µM)
MIC [14, 18]: > 32 µg/mL
MIC ([15]; Aspergillus niger, strain AN1): > 32 µg/mL
MIC UTHSC ([15]; strain AN2): > 32 µg/mL
